Test results taken from patent US20240368145A1, “METHODS FOR TREATING CANCER” (IMMUNIC AG, priority 2021, published 2024).

Assays:
[1] = tested on: full length AR (AR-FL) mRNA; experiment: Androgen receptor RNA level expression (qRT-PCR) in 22Rv1: AR-FL; format: cell-based; conditions: 22Rv1, 1 μM, 48 h; for AR-FL mRNA expression / mrna remaining at 1 µM: normalized to untreated control (vehicle/DMSO); for mrna remaining at 1 µM: Homo sapiens
Description: (§1) The prostate cancer cell line 22Rv1 was treated for 48 h with 1 μM Example compound 1, 1/1, 1/2, 2/1, 2/2, 2/3, 2/4, 2/5, 2/6, 2/7, 2/8, 2/9 and 2/10 and the reference compounds SR2211 and XY018 (Nat. Med. 2016; 22:488). RNA was extracted using the RNA isolation kit XS (Macherey-Nagel) and following the manufacture's manual. RNA quantity was measured with the Nanodrop before reverse transcription using Superscript II (Invitrogen #100004925). For the quantitative real-time PCR with SYBR-Green (Qiagen #204074), the following primers were used: AR forward-ACATCAAGGAACTCGATCGTATCATTGC and reverse-TTGGGCACTTGCACAGAGAT, AR-V7: forward-CCATCTTGTCGTCTTCGGAAATGTTATGAAGC and reverse-TTTGAATGAGGCAAGTCAGCCTTTCTT. The qRT-PCR proceeded as follows: denaturation for 5 min 95° C.; 40 cycles of “20 sec at 95° C. and 15 sec at 60° C.” and at the end of the last cycle, the melting temperature of the products was determined by gradually increasing it from 60° C. to 99° C. CT values from all samples were normalized to two different reference (housekeeping) genes using the mean CT value of the GAPDH and YWHAZ (reference genes). Next the values are normalized to the untreated control (vehicle/DMSO).

[2] = tested on: AR-V7 protein; experiment: Androgen receptor protein expression (western blot) in 22Rv1: AR-V7; format: cell-based, human; conditions: 22Rv1, 6 μM, 48 h; western blot quantification
Description: (§2) After 48 h, cell were lysed using cell extraction buffer (Life Technologies #FNN0011) for western blot. […] The membrane is then incubation for 1 hour in blocking buffer (5% milk in 20 mM Tris, 150 mM NaCl, pH 7.5, 0.05% Tween 20 [TBS-T]). After this incubation, the primary antibody is added and incubated overnight at 4° C. After washing, the membrane was incubated with the secondary antibody for 1 h. Visualization of the bands was performed using the femto maximum sensitivity substrate reagent and the luminescence signal recorded with the Fusion FX7 (Vilber). For protein quantification, InageJ was used.

[3] = tested on: CAMKK2 mRNA; experiment: Expression of AR target genes (qRT-PCR) in 22Rv1: CAMKK2; format: cell-based; conditions: 22Rv1, 1 μM, 48h; relative to vehicle control (DMSO)
Description: (§3) The prostate cancer cell line 22Rv1 was treated for 48h with 1 μM Example compound 1, 1/1, 2/1, 2/2, 2/3, 2/4, 2/5, 2/6, 2/7, 2/8, 2/9 and 2/10 and reference compounds SR2211 and XY018. RNA was extracted using the RNA isolation kit XS (Macherey-Nagel) and following the manufacture's manual. RNA quantity was measured with the Nanodrop before reverse transcription using Superscript II (Invitrogen #100004925). For the quantitative real-time PCR with SYBR-Green (Qiagen #204074), the following primers were used:
(§4) qRT-PCR was performed using SYBR-Green (Qiagen #204074) reagents in a PCR cycler (Gorbett Research) Rotor Gene RG3000 with the following program: denaturation for 5′ at 95° C.; 40 cycles of 20″ at 95° C. and 15″ at 60° C.″ and at the end of the last cycle, the melting temperature of the products was determined by gradually increasing from 60° C. to 99° C. CT values from all samples were normalized to reference (housekeeping) genes using the mean CT value of the GAPDH and YWHAZ (reference genes). Next the values are put relative to the untreated control (vehicle/DMSO).

[4] = tested on: KLK2 mRNA; experiment: Expression of AR target genes (qRT-PCR) in 22Rv1: KLK2; format: cell-based; conditions: 22Rv1, 1 μM; for KLK2 mRNA expression / mrna remaining at 1 µM: 48h, relative to vehicle control (DMSO); for KLK2 mRNA level expression: 48 h; for mrna remaining at 1 µM: Homo sapiens
Description: as §3, §4

[5] = tested on: AR-V7 mRNA; experiment: Androgen receptor RNA level expression (qRT-PCR) in 22Rv1: AR-V7; format: cell-based; conditions: 22Rv1, 1 μM, 48 h; for mrna remaining at 1 µM: Homo sapiens
Description: as §1

[6] = tested on: AR-FL protein; experiment: Androgen receptor protein expression (western blot) in 22Rv1: AR-FL; format: cell-based, human; conditions: 22Rv1, 6 μM, 48 h; western blot quantification
Description: as §2

[7] = tested on: AML cell line THP-1; experiment: CellTiter-Blue proliferation assay, THP-1; format: cell-based; conditions: Homo sapiens, geometric mean relative IC50, 72 hours, read-out: IC50 range for cell line THP-1
Description: (§5) Aim of this study was to evaluate compounds of Example 1, 1/1, 2/2, 2/5 and 2/6 in a proliferation assays. The 5 test compounds were tested in a CellTiter-Blue® based proliferation assay in three AML cell lines (HL-60, THP-1 and MOLM-13). The compounds were tested at 10 concentrations in half-log increments (highest concentration 30 μM or 100 μM) in duplicates. The incubation period with the applied compounds was fixed to 72 hours.

[8] = tested on: NKX3.1 mRNA; experiment: Expression of AR target genes (qRT-PCR) in 22Rv1: NKX3.1; format: cell-based; conditions: Homo sapiens; 22Rv1, 1 μM, 48h; relative to vehicle control (DMSO)
Description: as §3, §4

[9] = tested on: AML cell line HL-60; experiment: CellTiter-Blue proliferation assay, HL-60; format: cell-based; conditions: Homo sapiens, geometric mean relative IC50, 72 hours, read-out: IC50 range for cell line HL-60
Description: as §5

[10] = tested on: IFNγ; experiment: Cytokine assay, human PBMC stimulated with PHA: IFNγ; format: cell-based; conditions: PHA-activated, 48 hours, read-out: IFNγ inhibition (IC50 range)
Description: (§6) Peripheral blood mononuclear cells (PBMC) from healthy human donors were purified using Accuspin™ System-Histopaque-1077 (Sigma) according to the protocol recommended by the manufacturer. Purified PBMC were then washed twice with phosphate-buffered saline (PBS) and resuspended in RPMI1640 culture medium supplemented with 10% dialyzed heat inactivated fetal calf serum, 1.5 mM L-glutamine, 100 U penicillin/mL and […] streptomycin/mL (all from PAN Biotech, Aidenbach, Germany). For stimulation, PBMC were seeded at 1×10^5 cells/well, activated with 2 gg/mL phytohaemagglutinin (PHA, Sigma) and incubated with the test compounds for 48 hours. IL-17A, IL-17F and INFγ were then determined in the culture supernatant using a Luminex BioPlex system, following the manufacturer's instructions (BioRad, Munich, Germany). To determine the IC50, compounds were titrated semilogarithmically.
(§7) Cytokines were determined in the aforementioned culture supernatant using the following methods: IL-17A was measured using the human homodimer IL-17A ELISA Ready Set Go Kit from cBioscience (Frankfurt, Germany); IL-17F using the human IL-17F ELI-Pair from Holzel Diagnostica GmbH (K51n, Germany); and IFNγ using the OptEIA human IFN-g ELISA from BD Bioscience (Heidelberg, Germany), all following the manufacturer's instructions.

[11] = tested on: IL-17F; experiment: Cytokine assay, human PBMC stimulated with PHA: IL-17F; format: cell-based; conditions: PHA-activated, 48 hours, read-out: IL-17F inhibition (IC50 range)
Description: as §6, §7

[12] = tested on: IL-17A; experiment: Cytokine assay, human PBMC stimulated with PHA: IL-17A; format: cell-based; conditions: PHA-activated, 48 hours, read-out: IL-17A inhibition (IC50 range)
Description: as §6, §7

[13] = tested on: FKBP5 mRNA; experiment: Expression of AR target genes (qRT-PCR) in 22Rv1: FKBP5; format: cell-based; conditions: Homo sapiens; 22Rv1, 1 μM, 48h; relative to vehicle control (DMSO)
Description: as §3, §4

[14] = tested on: AML cell line MOLM-13; experiment: CellTiter-Blue proliferation assay, MOLM-13; format: cell-based; conditions: Homo sapiens, geometric mean relative IC50, 72 hours, read-out: IC50 range for cell line MOLM-13
Description: as §5

[15] = normalized to untreated control (vehicle/DMSO)

Structure (SMILES)	AR-FL mRNA expression [1]	AR-V7 protein level [2]	CAMKK2 mRNA expression [3]	KLK2 mRNA expression [4]	AR-V7 mRNA expression [5, 15]	AR-FL protein level [6]	IC50 [7] [nM]	mrna remaining at 1 µM [8] [%]	IC50 [9] [nM]	full length AR (AR-FL) mRNA expression [1]	mrna remaining at 1 µM [1] [%]	IC50 [10] [nM]	IC50 [11] [nM]	IC50 [12] [nM]	KLK2 mRNA level expression [4]	mrna remaining at 1 µM [4] [%]	mrna remaining at 1 µM [13] [%]	AR-V7 mRNA expression [5]	mrna remaining at 1 µM [5, 15] [%]	IC50 [14] [nM]
OC(c1ccc(-c2ccc(CN3CCN(Cc4ccncc4)CC3)cc2)c(F)c1)(C(F)(F)F)C(F)(F)F [SR2211, reference compound]	1.058	0.728	1.009	1.284	1.059	0.675	–	–	–	–	–	–	–	–	–	–	–	–	–	–
C[C@]1(O)C[C@@H](n2ncc(-c3onc(-c4c(F)cccc4Cl)c3-c3ncccn3)c2C(F)(F)F)C1 [2/5]	–	–	–	–	–	–	< 10	30.7	< 10	strong reduction	45.4	< 25	< 25	< 25	strong inhibition	37.7	27.1	strong reduction	23.9	< 10
COC(=O)c1c(-c2c(F)cccc2Cl)noc1-c1cnn([C@H]2C[C@@](C)(O)C2)c1C(F)(F)F [Example 2/2]	–	–	–	–	–	–	10 to 100	25.5	< 10	strong reduction	38	< 25	< 25	< 25	strong inhibition	34.1	24.6	strong reduction	19.9	< 10
O=C(Cc1ccccc1[N+](=O)[O-])Nc1ccc(-c2ccc(C(O)(C(F)(F)F)C(F)(F)F)cc2F)cc1 [XY018, reference compound]	1.111	0.653	0.959	0.831	1.237	0.588	–	–	–	–	–	–	–	–	–	–	–	–	–	–
C[C@]1(O)C[C@@H](n2ncc(-c3onc(-c4ccccc4Cl)c3-c3ncccn3)c2C(F)(F)F)C1 [2/6]	–	–	–	–	–	–	10 to 100	44	< 10	strong reduction	54.9	< 25	< 25	< 25	strong inhibition	42.8	33.8	strong reduction	30.4	< 10
